{"source": "paper PMC6599048", "about": "“Polyhistidine facilitates direct membrane translocation of cell-penetrating peptides into cells” (Scientific Reports, 2019)", "key": {"A549 cells [1]": {"tested_on": "A549 cells", "assay": "Time course of cellular internalization of FITC-CPPs, flow cytometry", "format": "cell-based, human", "conditions": "80 μM, 37 °C", "method": "(§1) A549 cells were washed with phosphate buffered saline (PBS) and changed to serum-free RPMI 1640 medium for protein transduction experiments. The presence of 10% serum in the medium as the solvent caused a decrease in the uptake of CPPs or their complexes/conjugates. For cellular internalization, cells were seeded at a density of about 1 × 10^5 per 35-mm petri dish and then treated with serum-free medium (as a control), 80 μM of FITC isomer I (Sigma-Aldrich, St. Louis, MO, USA), FITC-nonCPP, FITC-L6, FITC-HL6, or FITC-HR9 at 37 °C for either 1 h or various time durations. The fluorescent tracker Hoechst 33342 was used to stain the nuclei of cells in blue, according to the manufacturer’s instructions (Thermo Fisher).\nCells were seeded at a density of about 2 × 10^5 per well in a 24-well plate. Following the protein transduction, cells were washed with PBS and harvested by adding 250 μl/well of 2.9 mM ethylenediaminetetraacetic acid (EDTA, pH 6.14)[22]. […] Digital measurements were analyzed using Cell Lab Quanta SC MPL software version 1.0 (Beckman Coulter)."}, "A549 cells [2]": {"tested_on": "A549 cells", "assay": "MTT cytotoxicity assay, A549", "conditions": "6 μM HL6, 0.3 μM QDs or complexes at ratio 20, 37 °C 30 min, then 24 h in complete medium, twelve independent experiments"}, "HeLa cells": {"tested_on": "HeLa cells", "assay": "MTT cytotoxicity assay, HeLa", "conditions": "6 μM HL6, 0.3 μM QDs or complexes at ratio 20, 37 °C 30 min, then 24 h in complete medium, twelve independent experiments", "method": "One hundred % DMSO and serum-free medium were used to treat cells for 30 min as positive and negative controls, respectively. HeLa cells were pretreated with 4 °C for 30 min or heparinases I, II, and III for 6 h. Cells were then treated with HL6/QD complexes (prepared at a ratio of 20 at 37 °C for 1 h) in the absence or presence of various endocytic inhibitors at 37 °C for 30 min. After treatment, cells were washed with PBS and then incubated in complete culture medium at 37 °C for 24 h. Eighty μl of serum-free medium and 20 μl of 3-(4,5-dimethylthiazol-2-yl)-2,5-diphenyltetrazolium bromide (MTT, Sigma-Aldrich; 5 mg/ml in PBS) solution were added to each well. After incubation at 37 °C for 30 min, […] formazan crystals converted only by metabolically living cells were dissolved in 300 μl of DMSO. The 24-well plates were then read using a SpectraMax M2 microplate reader with SoftMax Pro 6.3 microplate analysis software (Molecular Devices, Sunnyvale, CA, USA) at 540 nm wavelength."}, "human A549 cells": {"tested_on": "human A549 cells", "assay": "Cellular internalization of FITC-CPPs, fluorescent microscopy", "format": "cell-based", "conditions": "80 μM, serum-free RPMI 1640, 37 °C, 1 h, Hoechst 33342 counterstain", "method": "as §1\nBright-field and fluorescent images were captured using an AE31 inverted Epi-fluorescence microscope (Motic, Hong Kong, China) equipped with an IS1000 eyepiece (Tucsen, Fujian, China)[17]. Excitation filter modules of green and blue fluorescent protein (GFP, BFP) channels were set at 480/30 and 350/50 nm, respectively. Emission filter modules of GFP and BFP channels were set at 535/40 and 460/50 nm, respectively."}}, "note": "Primed or numbered codes have the meaning given here. Ends that are not written are not given here. FITC′ = fluorescein isothiocyanate label", "data": [{"substance": "CHHHHHRRRRRRRRRHHHHHC [FITC-HR9, reference compound]", "values": [{"measurement": "time by which green fluorescence was present", "setting": "A549 cells [1]; serum-free medium", "value": "≤ 5", "unit": "min"}, {"measurement": "fraction of cells showing uptake, comparison between FITC-CPPs", "setting": "A549 cells [1]; all time points", "value": "higher with FITC-HR9-treated cells than FITC-HL6 and FITC-L6 at all time points"}]}, {"substance": "CHHHHHRRWQWRHHHHHC [HL6]", "values": [{"measurement": "cytotoxicity (cell viability, MTT)", "setting": "A549 cells [2]", "value": "No cytotoxicity was detected"}, {"measurement": "cytotoxicity (cell viability, MTT)", "setting": "HeLa cells", "value": "No cytotoxicity was detected"}]}, {"substance": "FITC-HL6: N-terminal fluorescein isothiocyanate (FITC) labeled HL6 ({FITC′}-CHHHHHRRWQWRHHHHHC; cysteine pairing not given here)", "values": [{"measurement": "time by which green fluorescence was present", "setting": "A549 cells [1]; serum-free medium", "value": "≤ 5", "unit": "min"}, {"measurement": "uptake relative to the FITC-L6 group", "setting": "A549 cells [1]; 60 min, serum-free medium, seven independent experiments in triplicates", "value": 46.7, "unit": "times"}, {"measurement": "green fluorescence in cells (cellular internalization)", "setting": "human A549 cells", "value": "green fluorescence"}]}, {"substance": "fluorescein isothiocyanate [FITC, reference compound]", "values": [{"measurement": "green fluorescence in cells (cellular internalization)", "setting": "human A549 cells", "value": "did not display green fluorescence"}]}]}
